Among the data in patent US8901118B2, “Compounds and methods for kinase modulation, and indications therefor” (Plexxikon Inc., priority 2010, dated 2014) are IC50 values, retold here.

The target of one assay is T1, BCR-NTRK1 BaF3 cells (Homo sapiens, UniProt P04629).
T1 construct: fused on or other part: P11274 (Breakpoint cluster region protein)
The experiment in a line: BaF3 BCR-NTRK1 cell proliferation assay (ATPlite). It is filed as cell-based. The note with it: read-out: Inhibition of Cell Proliferation IC50, BCR/BaF3 TrkA. The method, boiled down:
(§1)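 Cells are plated overnight: BaF3 at 10,000/well in G418 medium without WEHI/IL-3, MV-4-11 at 25,000/well in IMDM with 10% FBS. An 8-point 1:3 compound titration (10 μM top) is then added, and plates are incubated 3 days at 37 °C before ATPlite readout and IC50 determination.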
In general terms: Cellular ATP, detected with luciferase, serves as a proxy for viable cell number.

For another assay, the target named is CYP3A4(BFC) (Homo sapiens, UniProt P08684). Kind of assay: CYP3A4(BFC) inhibition. It is filed as in vitro ADME. The note with it: CYP3A4, substrate BFC; read-out: Cyp IC50 3A4(BFC). The method, boiled down:
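This fluorescence assay tracks how test compounds reduce CYP3A4 turnover of BFC, with enzyme and substrate from BD Biosciences. A 10-point 1:1 dilution series in cofactor mix (1.3% NADPH Regeneration Solution A, 1.04% Solution B, 5% acetonitrile, 0.05% DMSO) was dispensed at 10 μL into 384 well plates, preincubated 10 minutes at 37° C, then incubated 30 min and read on a Tecan Safire 2.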

The next assay concerns the target T2, BCR-KIT BaF3 cells (Homo sapiens, UniProt P10721).
T2 construct: fused on or other part: P11274 (Breakpoint cluster region protein)
Kind of assay: BaF3 BCR-KIT cell proliferation assay (ATPlite). The note with it: read-out: Inhibition of Cell Proliferation IC50, BCR/BaF3 Kit. It is filed as cell-based. Put shortly: as §1

The next assay has as its target T3, BCR-NTRK3 BaF3 cells (Homo sapiens, UniProt Q16288).
T3 construct: fused on or other part: P11274 (Breakpoint cluster region protein)
Kind of assay: BaF3 BCR-NTRK3 cell proliferation assay (ATPlite). The conditions noted are these: read-out: Inhibition of Cell Proliferation IC50, BCR/BaF3 TrkC. It counts as cell-based. The method, boiled down: as §1

T2 sequence (P10721 589-937): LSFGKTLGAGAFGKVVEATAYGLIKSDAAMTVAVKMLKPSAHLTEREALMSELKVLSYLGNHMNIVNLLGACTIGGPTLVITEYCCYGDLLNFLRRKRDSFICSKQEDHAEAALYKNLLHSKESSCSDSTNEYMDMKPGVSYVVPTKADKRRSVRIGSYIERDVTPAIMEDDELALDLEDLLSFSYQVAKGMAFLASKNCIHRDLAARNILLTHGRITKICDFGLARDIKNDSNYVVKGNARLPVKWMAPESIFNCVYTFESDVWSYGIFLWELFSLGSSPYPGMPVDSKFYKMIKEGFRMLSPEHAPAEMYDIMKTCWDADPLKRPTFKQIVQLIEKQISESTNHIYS
T1 sequence (P04629 510-781): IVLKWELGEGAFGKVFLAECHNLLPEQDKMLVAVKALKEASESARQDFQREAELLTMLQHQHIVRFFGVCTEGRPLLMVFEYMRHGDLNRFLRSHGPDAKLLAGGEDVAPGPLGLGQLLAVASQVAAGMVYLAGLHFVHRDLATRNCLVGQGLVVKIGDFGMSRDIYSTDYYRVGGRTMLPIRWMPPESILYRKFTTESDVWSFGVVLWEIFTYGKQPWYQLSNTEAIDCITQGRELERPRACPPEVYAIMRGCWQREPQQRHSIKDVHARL
T3 sequence (Q16288 whole entry, the tested form may be a part): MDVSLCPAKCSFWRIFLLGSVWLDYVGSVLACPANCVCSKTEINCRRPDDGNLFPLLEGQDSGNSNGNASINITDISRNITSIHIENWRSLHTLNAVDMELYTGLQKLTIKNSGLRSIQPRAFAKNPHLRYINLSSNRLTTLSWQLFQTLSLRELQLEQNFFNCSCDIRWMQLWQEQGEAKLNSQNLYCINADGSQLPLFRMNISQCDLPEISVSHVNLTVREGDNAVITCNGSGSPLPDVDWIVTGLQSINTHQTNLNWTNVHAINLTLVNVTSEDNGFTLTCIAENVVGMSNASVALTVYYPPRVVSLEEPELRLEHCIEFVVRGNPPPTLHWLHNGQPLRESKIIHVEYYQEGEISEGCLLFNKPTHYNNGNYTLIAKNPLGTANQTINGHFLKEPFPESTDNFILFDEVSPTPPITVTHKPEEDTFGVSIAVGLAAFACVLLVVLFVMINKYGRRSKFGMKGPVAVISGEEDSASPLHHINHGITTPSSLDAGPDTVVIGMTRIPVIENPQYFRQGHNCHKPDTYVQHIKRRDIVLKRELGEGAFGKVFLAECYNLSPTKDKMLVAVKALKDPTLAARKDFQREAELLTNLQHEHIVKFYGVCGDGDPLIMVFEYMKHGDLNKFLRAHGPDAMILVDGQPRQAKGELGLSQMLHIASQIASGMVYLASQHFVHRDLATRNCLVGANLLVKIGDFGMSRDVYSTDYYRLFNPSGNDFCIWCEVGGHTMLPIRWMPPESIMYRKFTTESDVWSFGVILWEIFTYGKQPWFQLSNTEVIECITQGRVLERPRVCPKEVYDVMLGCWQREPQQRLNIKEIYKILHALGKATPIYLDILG
CYP3A4(BFC), sequence (P08684 whole entry): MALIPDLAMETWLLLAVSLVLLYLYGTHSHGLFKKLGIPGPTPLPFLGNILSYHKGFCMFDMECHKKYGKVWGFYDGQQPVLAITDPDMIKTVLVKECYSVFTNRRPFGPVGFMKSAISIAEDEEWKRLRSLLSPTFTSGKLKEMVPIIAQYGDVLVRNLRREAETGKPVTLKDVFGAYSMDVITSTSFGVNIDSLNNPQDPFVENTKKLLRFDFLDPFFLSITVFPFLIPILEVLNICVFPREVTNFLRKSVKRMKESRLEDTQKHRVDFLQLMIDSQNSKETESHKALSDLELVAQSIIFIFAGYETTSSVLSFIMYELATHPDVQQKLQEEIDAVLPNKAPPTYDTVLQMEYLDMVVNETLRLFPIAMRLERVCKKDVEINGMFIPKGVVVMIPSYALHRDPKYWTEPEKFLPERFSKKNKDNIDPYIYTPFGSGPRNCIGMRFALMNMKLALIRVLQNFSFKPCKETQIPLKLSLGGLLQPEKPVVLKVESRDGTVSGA

On to `CCNc1ncnc2[nH]cc(C(=O)c3ccc(Nc4ccc(CC)nc4)nc3F)c12` [Compound P-4123, [4-(ethylamino)-7H-pyrrolo[2,3-d]pyrimidin-5-yl]-[6-[(6-ethyl-3-pyridyl)amino]-2-fluoro-3-pyridyl]methanone], for which the IC50 on BCR-NTRK1 BaF3 cells was < 10 nM; at CYP3A4(BFC) it was > 10000 nM; at BCR-KIT BaF3 cells it was < 100 nM; on BCR-NTRK3 BaF3 cells, < 10 nM.

On to `CCc1ccc(Nc2ccc(C(=O)c3c[nH]c4ncnc(NC)c34)c(F)n2)cn1` [Compound P-4124, [6-[(6-ethyl-3-pyridyl)amino]-2-fluoro-3-pyridyl]-[4-(methylamino)-7H-pyrrolo[2,3-d]pyrimidin-5-yl]methanone], for which the IC50 at BCR-NTRK1 BaF3 cells was < 10 nM; on CYP3A4(BFC) it was > 10000 nM; at BCR-KIT BaF3 cells it was < 100 nM; on BCR-NTRK3 BaF3 cells it was < 10 nM.

On to `CCc1ccc(Nc2ccc(C(=O)c3c[nH]c4ncnc(NC5CC5)c34)c(F)n2)cn1` [Compound P-4125, [4-(cyclopropylamino)-7H-pyrrolo[2,3-d]pyrimidin-5-yl]-[6-[(6-ethyl-3-pyridyl)amino]-2-fluoro-3-pyridyl]methanone], for which the IC50 on BCR-NTRK1 BaF3 cells was < 10 nM; on CYP3A4(BFC), > 10000 nM; at BCR-KIT BaF3 cells it was < 100 nM; at BCR-NTRK3 BaF3 cells, < 10 nM.

`COc1ccc(Nc2ccc(C(=O)c3c[nH]c4ncnc(NC5CC5)c34)c(F)n2)cn1` [Compound P-4126, [4-(cyclopropylamino)-7H-pyrrolo[2,3-d]pyrimidin-5-yl]-[2-fluoro-6-[(6-methoxy-3-pyridyl)amino]-3-pyridyl]methanone]: the IC50 at BCR-NTRK1 BaF3 cells was < 10 nM; on CYP3A4(BFC) it was < 10000 nM; at BCR-KIT BaF3 cells, < 100 nM; at BCR-NTRK3 BaF3 cells, < 10 nM.

Regarding `Fc1cc(Cc2c[nH]c3ncnc(NC4CC4)c23)cnc1NC1CCC(F)(F)CC1` [Compound P-4127, N-cyclopropyl-5-[[6-[(4,4-difluorocyclohexyl)amino]-5-fluoro-3-pyridyl]methyl]-7H-pyrrolo[2,3-d]pyrimidin-4-amine], the IC50 on BCR-NTRK1 BaF3 cells is < 1000 nM; at CYP3A4(BFC), < 5000 nM; on BCR-KIT BaF3 cells it was < 100 nM; at BCR-NTRK3 BaF3 cells it was < 100 nM.
